As usually defined, the IC50 is the point on the concentration scale where inhibition reaches its midpoint.

These results are taken from patent US11040028B2, “Penicinotam derivative, preparation method and use thereof” (OCEAN UNIVERSITY OF CHINA, priority 2017, dated 2021).

What all share (type): cell-based
For experiment [1], the system named is human hepatic stellate cells LX-2. Description: Anti-fibrosis activity test: inhibition of proliferation of human hepatic stellate cells LX-2 (CCK-8). As to conditions: Homo sapiens, 48 h, human hepatic stellate cells LX-2, CCK-8, 48 hours. The method in brief:
(§1)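 Proliferation inhibition is measured by CCK-8 after cells plated at 2×10^4 cells/mL attach overnight (24 h) and then receive test compounds for 48 h at several concentrations, each in triplicate. Optical density at 450 nm gives IR = (1−Ai/Ao)×100%, from which IC50 is computed.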

Experiment [2] has as its system human lung fibroblasts HFL1. The experiment is described as follows: Anti-fibrosis activity test: inhibition of proliferation of human lung fibroblasts HFL1 (CCK-8). As to conditions: Homo sapiens, HFL1, 48 h, human lung fibroblasts HFL1, CCK-8, 48 hours. The procedure, abridged: as §1
For experiment [3], the system named is human dermal fibroblasts CCC-ESF-1. The experiment is described as follows: Anti-fibrosis activity test: inhibition of proliferation of human dermal fibroblasts CCC-ESF-1 (CCK-8). As to conditions: Fibroblast; human dermal fibroblasts CCC-ESF-1, CCK-8, 48 hours. The method in brief:
as §1

For experiment [4], the system named is mouse macrophages (RAW264.7). The experiment is described as follows: Lipopolysaccharide-induced NO secretion in macrophages (Griess). As to conditions: Mus musculus, RAW264.7, 24 h, RAW264.7, LPS 1 μg/ml, a/b isomers given as first/second symbol, read-out: IC50 (μM), inhibition of lipopolysaccharide-induced NO secretion in macrophages. The method in brief: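 Indomethacin and resveratrol served as positive controls while compounds were tested across concentrations on LPS-stimulated (1 μg/ml, 24 h) RAW264.7 cells. NO output was quantified colorimetrically (Griess, 548 nm).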
Background: Nitrite, measured by Griess reagent, commonly stands in for NO production.

A further experiment deals with BHK-21 cells. Description: Anti-fibrosis activity test: inhibition of BHK-21 cell proliferation (CCK-8). As to conditions: Mesocricetus auratus, BHK-21, 48 h, CCK-8, 48 hours after administration. The procedure, abridged:
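BHK-21 cells seeded at 2×10^4 cells/mL, allowed to adhere 24 h at 37° C, 5% CO2, then exposed to compounds at graded concentrations in triplicate for 48 h. CCK-8 added for 2 h and absorbance read at 450 nm; inhibition rate taken as (1−Ai/Ao)×100% and IC50 fitted.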

The test system of a further experiment is NF-κB. Description: Immunological activity test: inhibition of NF-κB activity. As to conditions: initial concentration of 30 μM; a/b isomers given as first/second symbol; read-out: IC50 (μM), inhibitory activity against NF-κB. The method in brief: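 IC50 values were derived after initial screening of compounds at 30 μM for NF-κB inhibitory activity, with parthenolide serving as the positive control.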

Experiment [5] concerns human fibrosarcoma cells HT-1080. Description: Anti-fibrosis activity test: inhibition of proliferation of human fibrosarcoma cells HT-1080 (CCK-8). As to conditions: Homo sapiens, HT-1080, 48 h, human fibrosarcoma cells HT-1080, CCK-8, 48 hours. The method in brief:
as §1

Experiment [6] has as its system human embryonic lung fibroblast IMR-90. The experiment is described as follows: Anti-fibrosis activity test: inhibition of proliferation of human embryonic lung fibroblast IMR-90 (CCK-8). As to conditions: human embryonic lung fibroblast IMR-90, CCK-8, 48 hours. The procedure, abridged:
as §1

Experiment [7] relates to cardiac fibroblast RAT-iCell-C002. Description: Anti-fibrosis activity test: inhibition of proliferation of cardiac fibroblast RAT-iCell-C002 (CCK-8). As to conditions: Cardiac fibroblast, 48 h, cardiac fibroblast RAT-iCell-C002, CCK-8, 48 hours. The procedure, abridged: as §1

Regarding `O=C1c2c(n(Cc3ccc(F)cc3F)c3ccccc3c2=O)-c2cccn21` [Compound 578a, 4-(2,4-Difluorobenzyl)-9H-pyrrolizino[1,2-b]quinoline-9,10(4H)-dione], the IC50 in experiment [1] fell in the range of 0.05 to 5 mM; in experiment [2], 0.05 to 5 mM; in [3], 0.05 to 5 mM; in experiment [4] it was 1 to 10 µM; with BHK-21 cells, 0.05 to 5 mM; in the experiment on NF-κB it was 1 to 10 µM. Further, the figures for the IC50 in [5], in experiment [6] and in experiment [7] were below 0.05 mM, 0.05 to 5 mM and 0.05 to 5 mM, respectively.

As for `O=C1c2c(nc3ccccc3c2OCc2ccc(F)cc2F)-c2cccn21` [Compound 578b, 9-((2,4-difluorobenzyl)oxy)-10H-pyrrolizino[1,2-b]quinolin-10-one], the half-maximal inhibitory concentration (IC50) is 0.05 to 5 mM in [1]; 0.05 to 5 mM in [2]; 0.05 to 5 mM in [3]; 1 to 10 µM in experiment [4]; 0.05 to 5 mM with BHK-21 cells; 1 to 10 µM in the experiment on NF-κB. Further, the IC50 in [5], in [6] and in experiment [7] was 0.05 to 5 mM throughout.

With `O=C1c2c(n(Cc3cc(F)cc(F)c3)c3ccccc3c2=O)-c2cccn21` [Compound 579a, 4-(3,5-Difluorobenzyl)-9H-pyrrolizino[1,2-b]quinoline-9,10(4H)-dione], the IC50 is 0.05 to 5 mM in [1]; 0.05 to 5 mM in experiment [2]; 0.05 to 5 mM in experiment [3]; 1 to 10 µM in experiment [4]; 0.05 to 5 mM in the experiment on BHK-21 cells; 0.1 to 1 µM in the experiment with NF-κB. The IC50 in experiment [5], in experiment [6] and in experiment [7] was 0.05 to 5 mM throughout.

For the compound `O=C1c2c(nc3ccccc3c2OCc2cc(F)cc(F)c2)-c2cccn21` [Compound 579b, 9-((3,5-difluorobenzyl)oxy)-10H-pyrrolizino[1,2-b]quinolin-10-one], the IC50 in experiment [1] is 0.05 to 5 mM; in experiment [2] it was 0.05 to 5 mM; in [3], 0.05 to 5 mM; in [4] it was 1 to 10 µM; in the experiment on BHK-21 cells, 0.05 to 5 mM; in the experiment with NF-κB it was 0.1 to 1 µM. The IC50 in experiment [5], in experiment [6] and in [7] was 0.05 to 5 mM in each case.

On to `COc1cc(Cn2c3c(c(=O)c4ccccc42)C(=O)n2cccc2-3)cc(OC)c1` [Compound 580a, 4-(3,5-Dimethoxybenzyl)-9H-pyrrolizino[1,2-b]quinoline-9,10(4H)-dione], for which the IC50 in experiment [1] lay within 0.05 to 5 mM; in experiment [2], 0.05 to 5 mM; in experiment [3] it was 0.05 to 5 mM; in experiment [4], 0.1 to 1 µM; in the experiment on BHK-21 cells, 0.05 to 5 mM; in the experiment on NF-κB, 1 to 10 µM. Besides, the IC50 in [5], in experiment [6] and in [7] was 0.05 to 5 mM throughout.

In the case of `COc1cc(COc2c3c(nc4ccccc24)-c2cccn2C3=O)cc(OC)c1` [Compound 580b, 9-((3,5-dimethoxybenzyl)oxy)-10H-pyrrolizino[1,2-b]quinolin-10-one], the half-maximal inhibitory concentration (IC50) was in the range of 0.05 to 5 mM in experiment [1]; 0.05 to 5 mM in [2]; 0.05 to 5 mM in experiment [3]; 1 to 10 µM in experiment [4]; 0.05 to 5 mM in the experiment on BHK-21 cells; 1 to 10 µM in the experiment with NF-κB. The IC50 in experiment [5], in [6] and in experiment [7] was 0.05 to 5 mM in each case.

On to `O=C1c2c(n(Cc3ccccc3C(F)(F)F)c3ccccc3c2=O)-c2cccn21` [Compound 581a, 4-(2-(Trifluoromethyl)benzyl)-9H-pyrrolizino[1,2-b]quinoline-9,10(4H)-dione], for which the IC50 is 0.05 to 5 mM in experiment [1]; 0.05 to 5 mM in experiment [2]; 0.05 to 5 mM in [3]; 0.1 to 1 µM in experiment [4]; 0.05 to 5 mM in the experiment on BHK-21 cells; 1 to 10 µM in the experiment with NF-κB. Moreover, the 50% inhibitory concentration (IC50) in [5], in experiment [6] and in experiment [7] was 0.05 to 5 mM throughout.

As for `O=C1c2c(nc3ccccc3c2OCc2ccccc2C(F)(F)F)-c2cccn21` [Compound 581b, 9-((2-(trifluoromethyl)benzyl)oxy)-10H-pyrrolizino[1,2-b]quinolin-10-one], the IC50 was in the range of 0.05 to 5 mM in [1]; 0.05 to 5 mM in [2]; 0.05 to 5 mM in [3]; 1 to 10 µM in [4]; 0.05 to 5 mM in the experiment with BHK-21 cells; 1 to 10 µM in the experiment with NF-κB. Moreover, the IC50 in experiment [5], in [6] and in experiment [7] was 0.05 to 5 mM each time.

Consider `O=C1c2c(n(Cc3cccc(Cl)c3F)c3ccccc3c2=O)-c2cccn21` [Compound 582a, 4-(3-Chloro-2-fluorobenzyl)-9H-pyrrolizino[1,2-b]quinoline-9,10(4H)-dione], for which the IC50 in experiment [1] was in the range of 0.05 to 5 mM; in experiment [2], 0.05 to 5 mM; in experiment [3], 0.05 to 5 mM; in [4], 1 to 10 µM; in the experiment with BHK-21 cells, 0.05 to 5 mM; in the experiment with NF-κB, 1 to 10 µM. Moreover, the IC50 in experiment [5], in experiment [6] and in experiment [7] was 0.05 to 5 mM throughout.

Consider `O=C1c2c(nc3ccccc3c2OCc2cccc(Cl)c2F)-c2cccn21` [Compound 582b, 9-((3-chloro-2-fluorobenzyl)oxy)-10H-pyrrolizino[1,2-b]quinolin-10-one], for which the IC50 was 0.05 to 5 mM in [1]; 0.05 to 5 mM in experiment [2]; 0.05 to 5 mM in [3]; 1 to 10 µM in [4]; 0.05 to 5 mM in the experiment with BHK-21 cells; 1 to 10 µM in the experiment with NF-κB. For the same compound, the IC50 in experiment [5], in experiment [6] and in experiment [7] was 0.05 to 5 mM in each case.

Consider `O=C1c2c(n(Cc3cccc([N+](=O)[O-])c3)c3ccccc3c2=O)-c2cccn21` [Compound 583a, 4-(3-Nitrobenzyl)-9H-pyrrolizino[1,2-b]quinoline-9,10(4H)-dione], for which the IC50 lay in the range of 0.05 to 5 mM in experiment [1]; 0.05 to 5 mM in experiment [2]; 0.05 to 5 mM in experiment [3]; 1 to 10 µM in [4]; 0.05 to 5 mM in the experiment with BHK-21 cells; 1 to 10 µM in the experiment on NF-κB. The IC50 in [5], in experiment [6] and in [7] was 0.05 to 5 mM each time.

`O=C1c2c(nc3ccccc3c2OCc2cccc([N+](=O)[O-])c2)-c2cccn21` [Compound 583b, 9-((3-nitrobenzyl)oxy)-10H-pyrrolizino[1,2-b]quinolin-10-one]: the 50% inhibitory concentration (IC50) in experiment [1] lay in the range of 0.05 to 5 mM; in experiment [2], 0.05 to 5 mM; in [3], 0.05 to 5 mM; in experiment [4], 1 to 10 µM; in the experiment on BHK-21 cells, 0.05 to 5 mM; with NF-κB, 1 to 10 µM. Also, the IC50 in experiment [5], in [6] and in experiment [7] was 0.05 to 5 mM each time.

Turning to `O=C1c2c(n(Cc3ccc(F)c(F)c3F)c3ccccc3c2=O)-c2cccn21` [Compound 584a, 4-(2,3,4-Trifluorobenzyl)-9H-pyrrolizino[1,2-b]quinoline-9,10(4H)-dione], the IC50 in [1] is 0.05 to 5 mM; in [2] it was 0.05 to 5 mM; in experiment [3] it was 0.05 to 5 mM; in [4] it was 1 to 10 µM; in the experiment with BHK-21 cells, below 0.05 mM; in the experiment with NF-κB it was 0.1 to 1 µM. Further, the figures for the IC50 in [5], in experiment [6] and in experiment [7] were below 0.05 mM, 0.05 to 5 mM and 0.05 to 5 mM, respectively.

On to `O=C1c2c(nc3ccccc3c2OCc2ccc(F)c(F)c2F)-c2cccn21` [Compound 584b, 9-((2,3,4-trifluorobenzyl)oxy)-10H-pyrrolizino[1,2-b]quinolin-10-one], for which the IC50 in experiment [1] is 0.05 to 5 mM; in experiment [2], 0.05 to 5 mM; in experiment [3], 0.05 to 5 mM; in [4], 1 to 10 µM; in the experiment on BHK-21 cells, 0.05 to 5 mM; in the experiment on NF-κB, 0.1 to 1 µM. Besides, the results for the half-inhibitory concentration (IC50) in [5], in [6] and in experiment [7] were below 0.05 mM, 5 to 20 mM and 0.05 to 5 mM, respectively.

For `O=C1c2c(nc3ccccc3c2OCc2cc(F)c(F)cc2F)-c2cccn21` [Compound 585b, 9-((2,4,5-trifluorobenzyl)oxy)-10H-pyrrolizino[1,2-b]quinolin-10-one], the IC50 in [1] was in the range of 0.05 to 5 mM; in experiment [2] it was 0.05 to 5 mM; in experiment [3], 0.05 to 5 mM; in [4], 1 to 10 µM; with BHK-21 cells, 0.05 to 5 mM; with NF-κB, 1 to 10 µM. Moreover, the concentration for half-maximal inhibition (IC50) in [5], in [6] and in experiment [7] was 0.05 to 5 mM throughout.
